Where “and” joins values, the source holds several entries; their conditions need not be identical. Identical values can stand only once.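 96-well plates; 48 h exposure; 5 concentrations. Endpoints by linear interpolation between flanking doses. Not reached: highest tested concentration assigned. GI50 marks 50% less growth. TGI is the concentration that stops growth completely.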
Columns and labels:
Experiment in all cases: inhibition of tumour cell growth, NCI panel, 48 h
[1] = system: SR leukemia
[2] = system: U251 CNS
[3] = system: A498 renal
[4] = system: SNB-75 CNS
[5] = system: PC-3 prostate
[6] = system: OVCAR-3 ovarian
[7] = system: NCI-H522 lung
[8] = system: HCC-2998 colon
[9] = system: HOP-62 NSCLC
[10] = system: SF-268 CNS

Row | SMILES | GI50 [1] | TGI [1] | GI50 [2] | TGI [2] | GI50 [3] | TGI [3] | GI50 [4] | TGI [4] | GI50 [5] | TGI [5] | GI50 [6] | TGI [6] | GI50 [7] | TGI [7] | GI50 [8] | TGI [8] | GI50 [9] | TGI [9] | GI50 [10] | TGI [10]
1 | CN1CCN(c2ccc(C(=O)Nc3cccc(C#Cc4cccc5[nH]nc(N)c45)c3)cc2C(F)(F)F)CC1 | 1060 nM | 5.34 µM | 707 nM | 1.95 µM | 2220 nM | 6.76 µM | 624 nM | 1.62 µM | 953 nM | 7.92 µM | 1380 nM | 4.73 µM | 566 nM | 1.3 µM | 658 nM | 1.31 µM | 792 nM | 2.19 µM | 1210 nM | 4.85 µM
2 | CCCCCSC1C2C(=O)C(Br)=CC13CCNc1c(O)c4c5c(c13)=[N+]2CCC=5C=N4 (stereo not given) | 1350 nM | 14.7 µM | 2560 nM | 5.67 µM | 3010 nM | 6.61 µM | 2350 nM | 4.56 µM | 2000 nM | 7.45 µM | 405 nM | 1.44 µM | 452 nM | 1.26 µM | 1250 nM | 3.88 µM | 3030 nM | 5.8 µM | 2100 nM | 5.34 µM
3 | CN(C)c1ccc(/C=N/NC(=O)c2cccc3ccccc23)c(Cl)c1 | 360 nM | > 100 µM | 1100 nM | 26.2 µM | 422 nM | 6.26 µM | 1570 nM | 16.3 µM | 2240 nM | > 100 µM | 865 nM | 13.5 µM | 1120 nM | 39.4 µM | 38500 nM | > 100 µM | 4180 nM | 33.4 µM | 9100 nM | > 100 µM
4 | O=c1cc(O)c2c(O)cc(O)cc2o1 | – | > 100 µM | – | > 100 µM | – | > 100 µM | – | > 100 µM | – | > 100 µM | – | > 100 µM | – | > 100 µM | – | > 100 µM | – | > 100 µM | – | > 100 µM
5 | Cc1cc2c(cc1C)[n+](Cc1ccc3ccccc3n1)cn2Cc1ccc2ccccc2n1 | 1120 nM | 3.21 µM | 926 nM | 2.2 µM | 1040 nM | 2.36 µM | 1430 nM | 3.87 µM | 948 nM | 2.98 µM | 628 nM | 2.12 µM | 704 nM | 2.47 µM | 1270 nM | 2.73 µM | 1270 nM | 3.13 µM | 1270 nM | 3.02 µM
6 | O=C1N[C@H]2[C@H](O)[C@H](O)[C@@H](O)[C@H](O)[C@@H]2c2cc3c(c(O)c21)OCO3 | 24.8 nM | 0.511 µM and 3.31 µM | 156 nM and 187 nM | – | 230 nM and 796 nM | – | 257 nM and 1140 nM | – | 38.1 nM and 66.1 nM | 0.787 µM and 0.48 µM | 275 nM and 347 nM | – | 143 nM | 0.886 µM and 0.141 µM | 61.8 nM | 0.279 µM and 0.148 µM | 246 nM and 93.5 nM | 0.93 µM and 0.532 µM and 0.182 µM | 269 nM and 1360 nM | –
7 | CN(C)c1ccc(C(=C2C=CC(=[N+](C)C)C=C2)c2ccccc2Cl)cc1 | 235 nM | 0.898 µM | 127 nM | 1.14 µM | 289 nM | 1.04 µM | 238 nM | 0.851 µM | 242 nM | 0.995 µM | 261 nM | 0.699 µM | 268 nM | 0.925 µM | 354 nM | 1.28 µM | 292 nM | 0.949 µM | 379 nM | 1.41 µM
8 | CC12CCC(O)CC1=CCC1C2CCC2(C)C(c3cccnc3)=CCC12 (stereo not given) | 93900 nM | > 100 µM | 70100 nM | > 100 µM | > 100000 nM | > 100 µM | 48500 nM | > 100 µM | > 100000 nM | > 100 µM | > 100000 nM | > 100 µM | > 100000 nM | > 100 µM | > 100000 nM | > 100 µM | > 100000 nM | > 100 µM | 95200 nM | > 100 µM
9 | COc1ccc2nccc(/C=C/c3ccnc4ccc(OC)cc34)c2c1 | 21800 nM | > 53.7 µM | > 100000 nM | > 100 µM | > 36900 nM | > 83.9 µM | 27300 nM | > 80.2 µM | > 47500 nM | > 79.9 µM | > 92000 nM | > 100 µM | 26900 nM | 89.2 µM | > 100000 nM | > 100 µM | > 64300 nM | > 100 µM | > 91600 nM | > 100 µM
10 | CCCC#CCOC(=O)c1cc([N+](=O)[O-])cc([N+](=O)[O-])c1 | – | > 100 µM | – | > 100 µM | – | > 100 µM | – | > 100 µM | – | > 100 µM | – | > 100 µM | – | > 100 µM | – | > 100 µM | – | > 100 µM | – | > 100 µM
11 | Nc1ncnc2nn(C3OC(CO)C(O)C3O)nc12 (stereo not given) | – | 16 µM | – | > 81.6 µM | – | > 59.6 µM | – | 54.1 µM | – | > 67.6 µM | – | > 41.1 µM | – | > 100 µM | – | 32.8 µM | – | 46.5 µM | – | > 100 µM
12 | C[C@@](O)(/C=C/[C@H]1CC=CC(=O)O1)[C@@H](C[C@@H](O)\C=C/C=C\C=C\CO)OP(=O)(O)O | – | 41.6 µM | 13300 nM | 49 µM and 55.6 µM | 40200 nM | 83.8 µM and 60.3 µM | 315000 nM and 39400 nM | – | – | 12.4 µM | 12100 nM and 2940 nM | 27.7 µM and 12.7 µM | – | 66.1 µM and 60.1 µM | – | 22.3 µM | 10100 nM | 29.5 µM and 12.1 µM | 12200 nM | 83.2 µM and 99.1 µM
13 | COc1ccc2[nH]c(O)c(/C=c3/ccc4c(c3)N=C(c3ccc(F)cc3)N=4)c2c1 | 4950 nM | > 100 µM | 3650 nM | 30.8 µM | 1460 nM | 4.28 µM | 1550 nM | 3.6 µM | 4640 nM | 88.6 µM | 3250 nM | 11.4 µM | 2790 nM | 8.09 µM | > 100000 nM | > 100 µM | 1930 nM | 3.91 µM | 3760 nM | 22.7 µM

Reference: PubChem BioAssay (NCI)
